Test results taken from ChEMBL document CHEMBL5385961, “In vitro and in vivo evaluation of novel chromeno[2,3-d]pyrimidinones as therapeutic agents for triple negative breast cancer” (RSC Med Chem, 2024).
pIC50: −log10 of the molar value. The source made the active and inactive calls. The rule behind the calls is not given here.

Tests used:
Hs-578T [1] = assay: Cytotoxicity against human Hs-578T cells assessed as cell viability at 10 uM incubated for 72 hrs by SRB assay relative to control; assay type: functional; conditions: read-out: Activity
Hs-578T [2] = assay: Cytotoxicity against human Hs-578T cells assessed as cell viability at 30 uM incubated for 72 hrs by SRB assay relative to control; assay type: functional; conditions: read-out: Activity
MDA-MB-231 [3] = assay: Cytotoxicity against human MDA-MB-231 cells assessed as cell viability at 10 uM incubated for 72 hrs by SRB assay relative to control; assay type: functional; conditions: read-out: Activity
MDA-MB-231 [4] = assay: Cytotoxicity against human MDA-MB-231 cells assessed as cell viability at 30 uM incubated for 72 hrs by SRB assay relative to control; assay type: functional; conditions: read-out: Activity
MCF7 [5] = assay: Cytotoxicity against human MCF7 cells assessed as cell viability at 10 uM incubated for 72 hrs by SRB assay relative to control; assay type: functional; conditions: read-out: Activity
MCF7 [6] = assay: Cytotoxicity against human MCF7 cells assessed as cell viability at 30 uM incubated for 72 hrs by SRB assay relative to control; assay type: functional; conditions: read-out: Activity
Hs-578T [7] = assay: Cytotoxicity against human Hs-578T cells assessed as inhibition of cell growth incubated for 72 hrs by SRB assay; assay type: functional, cell-based
[8] = Cytotoxicity against human MCF-10A cells assessed as inhibition of cell growth incubated for 72 hrs by SRB assay; assay type: toxicity, cell-based
Homo sapiens = organism: Homo sapiens; assay: Selectivity index, ratio of IC50 for human MCF-10A cells to IC50 for human Hs-578T cells
Hs-578T [9] = assay: Induction of apoptosis in human Hs-578T cells assessed as increase in caspase-8 protein expression at IC50 measured after 24 hrs by Western blot analysis; assay type: functional, cell-based
Hs-578T [10] = assay: Induction of apoptosis in human Hs-578T cells assessed as increase in caspase-8 protein expression at IC50 measured after 48 hrs by Western blot analysis; assay type: functional, cell-based
Hs-578T [11] = assay: Induction of apoptosis in human Hs-578T cells assessed as increase in caspase-9 protein expression at IC50 measured after 24 to 48 hrs by Western blot analysis; assay type: functional, cell-based; conditions: time 24-48 hrs
Hs-578T [12] = assay: Induction of apoptosis in human Hs-578T cells assessed as increase in BID protein expression at IC50 measured after 24 to 48 hrs by Western blot analysis; assay type: functional, cell-based; conditions: time 24-48 hrs
Hs-578T [13] = assay: Induction of apoptosis in human Hs-578T cells assessed as increase in BAD protein expression at IC50 measured after 24 to 48 hrs by Western blot analysis; assay type: functional, cell-based; conditions: time 24-48 hrs
Hs-578T [14] = assay: Cytotoxicity against human Hs-578T cells assessed as reduction in cell viability at 10 uM incubated for 72 hrs by SRB assay relative to control; assay type: functional

Compound | viability at 10 µM (Hs-578T [1]) | viability at 30 µM (Hs-578T [2]) | viability at 10 µM (MDA-MB-231 [3]) | viability at 30 µM (MDA-MB-231 [4]) | viability at 10 µM (MCF7 [5]) | viability at 30 µM (MCF7 [6]) | pIC50 (Hs-578T [7]) | IC50 at 72 h [8] | Ratio IC50 (Homo sapiens) | Activity (Hs-578T [9]) | Activity (Hs-578T [10]) | Activity (Hs-578T [11]) | Activity (Hs-578T [12]) | Activity (Hs-578T [13]) | Activity (Hs-578T [14])
COc1cccc2c1C(=O)c1c(O)c3c(c(O)c1C2=O)C[C@@](O)(C(=O)CO)C[C@@H]3O[C@H]1C[C@H](N)[C@H](O)[C@H](C)O1 [DOXORUBICIN] | 8.65% | 7.61% | 6.72% | 5.85% | 24.5% | 28.8% |  |  |  |  |  |  |  |  | 
Cc1ccc2c(c1)Cc1c(nc(-c3ccccc3)[nH]c1=O)O2 | 96% | 73.3% | 90.1% | 65.6% | 85.8% | 73.1% |  |  |  |  |  |  |  |  | 
COc1cccc2c1Oc1nc(-c3cccc(Br)c3)[nH]c(=O)c1C2 | 66.8% | 40.6% | 92% | 80.8% | 78.4% | 52.4% |  |  |  |  |  |  |  |  | 
N#CC1=C(/N=C/Nc2ccccc2)Oc2ccc(Br)cc2C1CC(=O)c1ccccc1 (centres undefined) | 96.1% | 89.9% | 98% | 96% | 74.6% | 37.9% |  |  |  |  |  |  |  |  | 
COc1ccc2c(c1)C=C1C(=O)NC(c3c(OC)cc(OC)cc3OC)N=C1O2 (centres undefined) | 97% | 65.5% | 86.3% | 78.5% | 101% | 100% |  |  |  |  |  |  |  |  | 
COc1cccc2c1Oc1nc(-c3cccc(Cl)c3)[nH]c(=O)c1C2 | 72% | 49.9% | 80.8% | 76.9% | 69.8% | 40.4% |  |  |  |  |  |  |  |  | 
O=c1[nH]c(-c2ccccc2)nc2c1Cc1ccccc1O2 | 76.3% | 65.4% | 69.3% | 53.2% | 88.5% | 79.2% |  |  |  |  |  |  |  |  | 
O=c1[nH]c(-c2ccc3c(c2)OCO3)nc2c1Cc1cc(Br)ccc1O2 | 86.1% | 78.5% | 85.3% | 77.8% | 83.4% | 83.1% |  |  |  |  |  |  |  |  | 
COc1cccc2c1OC1=NC(c3ccc4c(c3)OCO4)NC(=O)C1=C2 (centres undefined) | 100% | 96.5% | 88.2% | 62.2% | 84.9% | 82.1% |  |  |  |  |  |  |  |  | 
COc1cccc2c1Oc1nc(-c3ccc(C)cc3)[nH]c(=O)c1C2 | 86.8% | 63.3% | 99.2% | 91.1% | 78.5% | 77.2% |  |  |  |  |  |  |  |  | 
COc1cccc2c1Oc1nc(-c3ccccc3Cl)[nH]c(=O)c1C2 | 81.7% | 72.5% | 92.5% | 90.1% | 74.7% | 58.2% |  |  |  |  |  |  |  |  | 
COc1cccc2c1Oc1nc(-c3ccc(Br)cc3)[nH]c(=O)c1C2 | 97.7% | 84.4% | 83.7% | 80.4% | 83.8% | 75.3% |  |  |  |  |  |  |  |  | 
O=c1c(O)c(-c2ccc(O)c(O)c2)oc2cc(O)cc(O)c12 [QUERCETIN] |  |  |  |  |  |  | 4.30 | 9.32 µM | 0.82 |  |  |  |  |  | 
COc1cccc2c1Oc1nc(/C=C/c3ccccc3)[nH]c(=O)c1C2 | 99.8% | 97.9% | 99.2% | 92.5% | 84.7% | 56.7% |  |  |  |  |  |  |  |  | 
COc1ccc2c(c1)Cc1c(nc(-c3cc(OC)ccc3OC)[nH]c1=O)O2 | 95.9% | 96.5% | 60.9% | 49.7% | 63.7% | 57.8% |  |  |  |  |  |  |  |  | 
COc1ccc(OC)c(-c2nc3c(c(=O)[nH]2)Cc2cccc(OC)c2O3)c1 | 72.7% | 74% | 87.1% | 88.4% | 77.7% | 76.6% |  |  |  |  |  |  |  |  | 
CC(C)(C)c1cc(-c2nc3c(c(=O)[nH]2)Cc2ccccc2O3)cc(C(C)(C)C)c1O | 80.2% | 81% | 95.1% | 95.2% | 97.7% | 94.7% |  |  |  |  |  |  |  |  | 

Compound | viability at 10 µM (Hs-578T [1]) | viability at 30 µM (Hs-578T [2]) | viability at 10 µM (MDA-MB-231 [3]) | viability at 30 µM (MDA-MB-231 [4]) | viability at 10 µM (MCF7 [5]) | viability at 30 µM (MCF7 [6]) | pIC50 (Hs-578T [7]) | IC50 at 72 h [8] | Ratio IC50 (Homo sapiens) | Activity (Hs-578T [9]) | Activity (Hs-578T [10]) | Activity (Hs-578T [11]) | Activity (Hs-578T [12]) | Activity (Hs-578T [13]) | Activity (Hs-578T [14])
COc1cccc(-c2nc3c(c(=O)[nH]2)Cc2cc(Cl)ccc2O3)c1 | 54.7% | 33.9% | 85.1% | 18.4% | 81.5% | 35.4% | 4.88 | 14 µM | 0.06 | Active | inactive | Active | Active | Active | ~50%
COc1cccc2c1Oc1nc(-c3ccc(F)cc3)[nH]c(=O)c1C2 | 97.5% | 84.4% | 105% | 97.8% | 88.8% | 82.9% |  |  |  |  |  |  |  |  | 
COc1ccccc1-c1nc2c(c(=O)[nH]1)Cc1cccc(OC)c1O2 | 86% | 80.2% | 82.9% | 63.6% | 85.5% | 54.8% |  |  |  |  |  |  |  |  | 
COc1ccc(OC)c(-c2nc3c(c(=O)[nH]2)Cc2cc(Cl)ccc2O3)c1 | 91.7% | 92% | 91% | 78% | 69.2% | 62.6% |  |  |  |  |  |  |  |  | 
Cc1cccc2c1Oc1nc(-c3ccccc3)[nH]c(=O)c1C2 | 81.3% | 62.1% | 32.6% | 15.9% | 34.7% | 23.8% |  |  |  |  |  |  |  |  | 
COc1cccc(-c2nc3c(c(=O)[nH]2)Cc2cccc(OC)c2O3)c1 | 99.3% | 85.3% | 70.5% | 51.6% | 93.6% | 71.3% |  |  |  |  |  |  |  |  | 
CCC(CC)C1N=C2Oc3c(cccc3OC)C=C2C(=O)N1 (centres undefined) | 98.4% | 83% | 85.8% | 64.1% | 85.9% | 84.8% |  |  |  |  |  |  |  |  | 
COc1cccc2c1Oc1nc(-c3cccc(O)c3)[nH]c(=O)c1C2 | 75.9% | 67.3% | 102% | 102% | 38% | 25.4% |  |  |  |  |  |  |  |  | 
COc1ccc2c(c1)Cc1c(nc(-c3cccc(Cl)c3)[nH]c1=O)O2 | 76% | 74.7% | 80.7% | 44.2% | 79.3% | 45.8% |  |  |  |  |  |  |  |  | 
COc1ccc2c(c1)Cc1c(nc(-c3ccccc3OC)[nH]c1=O)O2 | 87.5% | 65.6% | 85% | 65.9% | 90.6% | 70.4% |  |  |  |  |  |  |  |  | 
COc1ccccc1-c1nc2c(c(=O)[nH]1)Cc1cc(Cl)ccc1O2 | 78.4% | 38.7% | 88.2% | 65% | 80% | 57.3% |  |  |  |  |  |  |  |  | 
COc1cccc2c1Oc1nc(-c3ccco3)[nH]c(=O)c1C2 | 99.8% | 90.7% | 92.8% | 85.8% | 98.9% | 100% |  |  |  |  |  |  |  |  | 
COc1cccc(-c2nc3c(c(=O)[nH]2)Cc2cc(OC)ccc2O3)c1 | 88% | 77% | 69.3% | 41.2% | 73.1% | 49.8% |  |  |  |  |  |  |  |  | 
COc1cc(OC)c(C2N=C3Oc4ccc(Br)cc4C=C3C(=O)N2)c(OC)c1 (centres undefined) | 95.2% | 68.6% | 80.6% | 64.4% | 90.6% | 76.2% |  |  |  |  |  |  |  |  | 
COc1cccc2c1Oc1nc(-c3ccccc3)[nH]c(=O)c1C2 | 91.1% | 75.8% | 91.8% | 89.2% | 91.2% | 88.5% |  |  |  |  |  |  |  |  | 
COc1cc(OC)c(C2N=C3Oc4c(cccc4OC)C=C3C(=O)N2)c(OC)c1 (centres undefined) | 94.8% | 86% | 83.6% | 77.4% | 99.9% | 91.8% |  |  |  |  |  |  |  |  | 
